Laboratory results published in article PMC11444201, “A Novel Tetrahydroacridine Derivative with Potent Acetylcholinesterase Inhibitory Properties and Dissociative Capability against Aβ42 Fibrils Confirmed by In Vitro Studies” (International Journal of Molecular Sciences, 2024).
Structures can show the parent of a compound that is named as a salt.

Columns and labels:
[1] = target: acetylcholinesterase (AChE) (Electrophorus electricus, UniProt O42275); experiment: modified Ellman spectrophotometric assay with isolated enzyme; format: biochemical
[2] = target: T1, amyloid β 1-42 (Aβ42) fibrils (Homo sapiens, UniProt P05067); experiment: thioflavin T fluorescence fibril dissociation assay (DC50), supported by AFM; format: biochemical
T1 construct: gene APP; amyloid β 1-42 peptide, preformed fibrils
T1 sequence (P05067 672-713): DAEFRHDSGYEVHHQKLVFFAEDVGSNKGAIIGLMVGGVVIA

Chain of acetylcholinesterase (AChE) (O42275 24-633): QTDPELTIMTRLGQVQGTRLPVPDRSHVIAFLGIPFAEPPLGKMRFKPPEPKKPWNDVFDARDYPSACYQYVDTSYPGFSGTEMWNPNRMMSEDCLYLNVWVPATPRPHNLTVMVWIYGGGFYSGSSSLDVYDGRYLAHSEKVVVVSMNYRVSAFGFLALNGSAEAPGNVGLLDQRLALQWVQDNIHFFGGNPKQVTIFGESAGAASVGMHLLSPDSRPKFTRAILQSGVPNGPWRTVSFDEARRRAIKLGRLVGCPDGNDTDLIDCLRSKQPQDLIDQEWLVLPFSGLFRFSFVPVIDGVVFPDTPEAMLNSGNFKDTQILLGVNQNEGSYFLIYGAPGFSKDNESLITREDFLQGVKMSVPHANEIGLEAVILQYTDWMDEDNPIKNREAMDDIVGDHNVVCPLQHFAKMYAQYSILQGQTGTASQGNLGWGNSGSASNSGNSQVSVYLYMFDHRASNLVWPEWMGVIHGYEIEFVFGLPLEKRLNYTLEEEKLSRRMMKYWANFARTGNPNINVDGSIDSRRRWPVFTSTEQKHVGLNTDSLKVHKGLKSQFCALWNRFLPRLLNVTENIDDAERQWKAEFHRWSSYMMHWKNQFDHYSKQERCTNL

Structure (SMILES): Clc1cc2c3c(c4c(nc3c1)CCCC4)NCCN2 [CHDA, 6-chloro-1,2,3,4,9,10,11,12-octahydro-[1,4]-diazepine-[5,6,7-kl]-acridine Monohydrochloride]
- IC50 [1]: 18.5 ± 5.68 nM
- DC50 [2]: 70800 nM
